Inhibition in vivo and IC50 data for 9 compounds are collected here from patent US20100324091A1, “Pyrazolone Derivative” (Kowa Company, Ltd., priority 2007, published 2010).

SMILES strings stand for the structures.

For one experiment, the system named is C57BL/6 mice. Nature of the experiment: Bleomycin-induced lung fibrosis model. In kind it is in vivo. The following applies: Mus musculus, po, 504 h, 0.3 mg/kg orally once a day, three weeks after intratracheal bleomycin 6 mg/kg, vs solvent-administered group, read-out: Inhibitory ratio against the increment in the lung hydroxyproline amount. The source says:
It is reported that administering bleomycin into the trachea induces fibrosis of the lung. According to the pathological observation, it is similar to clinical idiopathic pulmonary fibrosis in terms of the thickened fibrosis of the alveolar wall, an increase in inflammatory cells, an increment in the amount of hydroxyproline, etc., and is often used as a lung fibrosis experimental model (Biochem. Biophys. Res. Comm., 288, 747 (2001)). Bleomycin hydrochloride (Bleo: Nippon Kayaku Co., Ltd.) dissolved in physiological saline was injected with 500 μl of compressed air into the bronchi of C57BL/6 mice (6 week old, female) at 6 mg/kg and 25 μl/body. Three weeks after the intratracheal administration, the amount of hydroxyproline in the lung was measured. The materials to be tested, at 0.3 mg/kg per dose, were suspended in 0.5% sodium carboxymethyl cellulose, and administered orally once a day. The effect of the present invention is represented by a inhibitory ratio against the increment in the amount of lung hydroxyproline of the solvent-administered group, and is shown in Table 3 below.

Experiment [1] has as its system PAI-1 production in human bronchial epithelial cells (BEAS-2B). As to the kind of experiment: PAI-1 production inhibitory activity using bronchial epithelial cells. It is filed as cell-based. The following applies: BEAS-2B cells, TGF-β stimulation, 24 hrs, PAI-1 in supernatant by ELISA. How it is done:
The effect of a compound against PAI-1 production activity was investigated using bronchial epithelial cells which reflect the PAI-1 concentration in the lung tissue involved in fibrosis (lung).
The effect against the amount of PAI-1 production was investigated using human bronchial epithelial cells (BEAS-2B). 0.1 ml of the BEAS-2B cells prepared to 2×10^5 cells/ml were added to each of the 96 wells of a collagen I coated plate, and precultured for 24 hrs. Then 0.1 ml of a medium containing […] of TGF-β was added, and after 24 hrs of incubation, the PAI-1 amount in the supernatant of the medium was measured by an ELISA kit. The materials to be tested were, after dissolved in dimethyl sulfoxide (the final concentration: 0.1% or lower), prepared to 0.2, 1, 5, and 25 μM with a phosphate buffer solution, and added to the preculture.
A general note: In an ELISA, binding on a coated surface is turned into a signal by an enzyme label.

As to `COc1ccc(C2=NN(C)C(=O)C2)cc1OC1CCCC1` [Compound No. 4, 3-(3-(cyclopentyloxy)-4-methoxyphenyl)-1-methyl-5-pyrazolone], in the experiment with C57BL/6 mice, the inhibition in vivo at 0.3 mg/kg is 73%. The IC50 is the concentration at which inhibition is half-maximal. In the case of `COc1ccc(C2=NN(c3ccccc3)C(=O)C2)cc1OC1CCCC1` [Compound No. 6, 3-(3-(cyclopentyloxy)-4-methoxyphenyl)-1-phenyl-5-pyrazolone], in experiment [1], the IC50 came to 2.56 µM. In the experiment on C57BL/6 mice, the inhibition in vivo at 0.3 mg/kg turned out to be 52%. As to `COc1ccc(C2=NNC(=O)C2)cc1OC1Cc2ccccc2C1` [Compound No. 1, 3-(3-(2-indanyloxy)-4-methoxyphenyl)-5-pyrazolone], in the experiment on C57BL/6 mice, the inhibition in vivo at 0.3 mg/kg is 77%. In experiment [1], `COc1ccc(C2=NNC(=O)C2)cc1OC1CCCC1` [Compound No. 3, 3-(3-(cyclopentyloxy)-4-methoxyphenyl)-5-pyrazolone] showed an IC50 of 7.59 µM. Moreover, the inhibition in vivo at 0.3 mg/kg in the experiment on C57BL/6 mice was 73%. For `COc1ccc(C2=NN(C)C(=O)C2)cc1OC1Cc2ccccc2C1` [Compound No. 2, 3-(3-(2-indanyloxy)-4-methoxyphenyl)-1-methyl-5-pyrazolone], half-maximal inhibition in experiment [1] (IC50) required 1.42 µM. Besides, the inhibition in vivo at 0.3 mg/kg with C57BL/6 mice stood at 75%. Turning to `COc1ccc(C2=NNC(=O)C2)cc1OCC1CC1` [Compound No. 9, 3-(3-(cyclopropylmethoxy)-4-methoxyphenyl)-5-pyrazolone], the inhibition in vivo at 0.3 mg/kg in the experiment with C57BL/6 mice worked out at 60%. With `O=C1CC(c2ccc(OC(F)F)c(OC3CCCC3)c2)=NN1` [Compound No. 8, 3-(3-(cyclopentyloxy)-4-(difluoromethoxy)phenyl)-5-pyrazolone], the inhibition in vivo at 0.3 mg/kg in the experiment with C57BL/6 mice is 61%.

With `COc1ccc(C2=NN(c3ccccc3)C(=O)C2)cc1OC1Cc2ccccc2C1` [Compound No. 5, 3-(3-(2-indanyloxy)-4-methoxyphenyl)-1-phenyl-5-pyrazolone], in the experiment with C57BL/6 mice, the inhibition in vivo at 0.3 mg/kg was found to be 75%.

On to `COc1ccc(C2=NN(c3ccc(C(=O)O)cc3)C(=O)C2)cc1OC1CCCC1` [Compound No. 7, 3-(3-(cyclopentyloxy)-4-methoxyphenyl)-1-(4-hydroxycarbonylphenyl)-5-pyrazolone], for which the inhibition in vivo at 0.3 mg/kg with C57BL/6 mice amounted to 57%.
